# From patent US20190029257A1, “APPLICATION FOR HERBICIDE-TOLERANT PROTEIN” (BEIJING DABEINONG TECHNOLOGY GROUP CO., LTD., priority 2016, published 2019)
# Assays:
# Format in all cases: in vivo
# [1] = tested on: Gm cytoplasmic ALT-2-01 soybean plants; assay: Glyphosate tolerance of soybean plants (herbicide damage rate); settings: 840 g ae/ha, 1-fold field concentration; 14 DAT
# Text: (§1) The herbicide tolerance effects of Gm cytoplasmic ALT-1-01 soybean plants, Gm chloroplastic ALT-1-01 soybean plants, Gm cytoplasmic ALT-2-01 soybean plants, Gm chloroplastic ALT-2-01 soybean plants, Gm cytoplasmic ALT-3-01 soybean plants, Gm chloroplastic ALT-3-01 soybean plants and wild-type soybean plants on glyphosate were detected (at seedling stage), respectively.
# (§2) 2 strains from Gm cytoplasmic ALT-1-01 soybean plants, Gm chloroplastic ALT-1-01 soybean plants, Gm cytoplasmic ALT-2-01 soybean plants, Gm chloroplastic ALT-2-01 soybean plants, Gm cytoplasmic ALT-3-01 soybean plants, Gm chloroplastic ALT-3-01 soybean plants and wild-type soybean plants were respectively taken each, and 10-15 plants were selected from each strain and tested. The plants above were sprayed with glyphosate (840 g ae/ha, 1-fold field concentration) and a blank solvent (water). The herbicide damage rate was measured for each plant according to the phytotoxicity symptoms 14 days after spraying (14 DAT): herbicide damage rate (%)=Σ(number of damaged plants at the same level×level number)/(total number of plants×highest level).
# [2] = tested on: Gm cytoplasmic ALT-3-01 soybean plants; assay: as above; settings: 840 g ae/ha, 1-fold field concentration; 14 DAT
# Text: as §1, §2
# [3] = tested on: Gm chloroplastic ALT-3-01 soybean plants; assay: as above; settings: 840 g ae/ha, 1-fold field concentration; 14 DAT
# Text: as §1, §2
# [4] = tested on: Gm cytoplasmic ALT-1-01 soybean plants; assay: as above; settings: 840 g ae/ha, 1-fold field concentration; 14 DAT
# Text: as §1, §2
# [5] = tested on: wild-type soybean plants (CK1); assay: as above; settings: 840 g ae/ha, 1-fold field concentration; 14 DAT
# Text: as §1, §2
# [6] = tested on: Gm chloroplastic ALT-1-01 soybean plants; assay: as above; settings: 840 g ae/ha, 1-fold field concentration; 14 DAT
# Text: as §1, §2
# [7] = tested on: Gm chloroplastic ALT-2-01 soybean plants; assay: as above; settings: 840 g ae/ha, 1-fold field concentration; 14 DAT
# Text: as §1, §2
# [8] = tested on: all the transformed Arabidopsis thaliana T1 plants (ALT-1, ALT-2 and ALT-3); assay: Herbicide tolerance of Arabidopsis thaliana T1 plants; settings: 1-fold field concentration; summary of Table 2
# Text: (§3) At cytoplasmic ALT-1-01 T1 plants, At chloroplastic ALT-1-01 T1 plants, At cytoplasmic ALT-2-01 T1 plants, At chloroplastic ALT-2-01 T1 plants, At cytoplasmic ALT-3-01 T1 plants, At chloroplastic ALT-3-01 T1 plants and wild-type Arabidopsis thaliana plants were sprayed with halosulfuron-methyl (34 g ai/ha, 1-fold field concentration) and a blank solvent (water), respectively. Plants were counted for the resistance situations 14 days after spraying: those having a consistent growth status with the blank solvent (water) group after 14 days were classified as highly resistant plants, those having a bolting height less than ½ of that of the blank solvent (water) group after 14 days were classified as moderately resistant plants, those still not capable of bolting after 14 days were classified as poorly resistant plants, and those dead after 14 days were classified as non-resistant plants. Since each Arabidopsis thaliana T1 plant was an independent transformation event, a significant difference in individual T1 responses could be expected at a given dose.
# At cytoplasmic ALT-1-01 T1 plants, At chloroplastic ALT-1-01 T1 plants, At cytoplasmic ALT-2-01 T1 plants, At chloroplastic ALT-2-01 T1 plants, At cytoplasmic ALT-3-01 T1 plants, At chloroplastic ALT-3-01 T1 plants and wild-type Arabidopsis thaliana plants in Example 4 were sprayed with iodosulfuron-methyl (10 g ai/ha, 1-fold field concentration), mesosulfuron (14 g ai/ha, 1-fold field concentration) and oxasulfuron (60 g ai/ha, 1-fold field concentration), respectively, in addition to halosulfuron-methyl (34 g ai/ha, 1-fold field concentration) and the blank solvent (water). Plants were counted for the resistance situation 14 days after spraying: those having a consistent growth status with the blank solvent (water) group after 14 days were classified as highly resistant plants, those having a bolting height less than ½ of that of the blank solvent (water) group after 14 days were classified as moderately resistant plants, those still not capable of bolting after 14 days were classified as poorly resistant plants, and those dead after 14 days were classified as non-resistant plants. Since each Arabidopsis thaliana T1 plant was an independent transformation event, a significant difference in individual T1 responses could be expected at a given dose.
# [9] = tested on: wild-type Arabidopsis thaliana plants; assay: Herbicide tolerance of Arabidopsis thaliana plants (spray, resistance classes counted); settings: 10 g ai/ha (1x Iod.); number of plants 14 days after spraying; Total 29
# Text: (§4) T1 transformants were initially selected from the background of untransformed seeds using a glufosinate selection scheme. About 40000 T1 seeds were screened, and 380 T1 positive transformants (PAT gene) were identified with a transformation efficiency of about 0.95%. The plants that were transformed with the recombinant expression vector DBN100632 were Arabidopsis thaliana plants having an ALT-1-01 nucleotide sequence located in the cytoplasm introduced (At cytoplasmic ALT-1-01), and the plants that were transformed with the recombinant expression vector DBN100631 were Arabidopsis thaliana plants having an ALT-1-01 nucleotide sequence located in the chloroplast introduced (At chloroplastic ALT-1-01); the plants that were transformed with the recombinant expression vector DBN100634 were Arabidopsis thaliana plants having an ALT-2-01 nucleotide sequence located in the cytoplasm introduced (At cytoplasmic ALT-2-01), and the plants that were transformed with the recombinant expression vector DBN100633 were Arabidopsis thaliana plants having an ALT-2-01 nucleotide sequence located in the chloroplast introduced (At chloroplastic ALT-2-01); and the plants that were transformed with the recombinant expression vector DBN100636 were Arabidopsis thaliana plants having an ALT-3-01 nucleotide sequence located in the cytoplasm introduced (At cytoplasmic ALT-3-01), and the plants that were transformed with the recombinant expression vector DBN100635 were Arabidopsis thaliana plants having an ALT-3-01 nucleotide sequence located in the chloroplast introduced (At chloroplastic ALT-3-01). The herbicide tolerance effects of At cytoplasmic ALT-1-01 T1 plants, At chloroplastic ALT-1-01 T1 plants, At cytoplasmic ALT-2-01 T1 plants, At chloroplastic ALT-2-01 T1 plants, At cytoplasmic ALT-3-01 T1 plants, At chloroplastic ALT-3-01 T1 plants and wild-type Arabidopsis thaliana plants on halosulfuron-methyl were detected (14 days after sowing), respectively.
# as §3
# At cytoplasmic ALT-1-01 T1 plants, At chloroplastic ALT-1-01 T1 plants, At cytoplasmic ALT-2-01 T1 plants, At chloroplastic ALT-2-01 T1 plants, At cytoplasmic ALT-3-01 T1 plants, At chloroplastic ALT-3-01 T1 plants and wild-type Arabidopsis thaliana plants in Example 4 were sprayed with iodosulfuron-methyl (10 g ai/ha, 1-fold field concentration), mesosulfuron (14 g ai/ha, 1-fold field concentration) and oxasulfuron (60 g ai/ha, 1-fold field concentration), respectively, in addition to halosulfuron-methyl (34 g ai/ha, 1-fold field concentration) and the blank solvent (water). […]
# [10] = tested on: At cytoplasmic ALT-2-01 T1 plants; assay: Herbicide tolerance of Arabidopsis thaliana T1 plants (spray, resistance classes counted); settings: number of plants 14 days after spraying
# Text: as §4
# as §3, with “At cytoplasmic ALT-1-01 T1 plants, At chloroplastic ALT-1-01 T1 plants, At cytoplasmic ALT-2-01 T1 plants, At chloroplastic ALT-2-01 T1 plants, At cytoplasmic ALT-3-01 T1 plants, At chloroplastic ALT-3-01 T1 plants and wild-type Arabidopsis thaliana plants were sprayed with halosulfuron-methyl (34 g ai/ha, 1-fold field concentration) and a blank solvent (water), respectively.” left out
# (§5) […] Plants were counted for the resistance situation 14 days after spraying: those having a consistent growth status with the blank solvent (water) group after 14 days were classified as highly resistant plants, those having a bolting height less than ½ of that of the blank solvent (water) group after 14 days were classified as moderately resistant plants, those still not capable of bolting after 14 days were classified as poorly resistant plants, and those dead after 14 days were classified as non-resistant plants. Since each Arabidopsis thaliana T1 plant was an independent transformation event, a significant difference in individual T1 responses could be expected at a given dose.
# [11] = tested on: At chloroplastic ALT-2-01 T1 plants; assay: as above; settings: number of plants 14 days after spraying
# Text: as §4
# as §5, with “situations” for “situation”
# as §5
# [12] = tested on: At chloroplastic ALT-1-01 T1 plants; assay: as above; settings: number of plants 14 days after spraying
# Text: as §4
# as §5, with “situations” for “situation”
# as §5
# [13] = tested on: At chloroplastic ALT-3-01 T1 plants; assay: as above; settings: number of plants 14 days after spraying, Total 32
# Text: as §4
# as §5, with “situations” for “situation”
# as §5
# [14] = tested on: At cytoplasmic ALT-1-01 T1 plants; assay: as above; settings: number of plants 14 days after spraying, Total 29
# Text: as §4
# as §5, with “situations” for “situation”
# as §5
# [15] = tested on: At cytoplasmic ALT-3-01 T1 plants; assay: as above; settings: number of plants 14 days after spraying, Total 30
# Text: as §4
# as §5, with “situations” for “situation”
# as §5
# [16] = 14 g ai/ha (1x Mes.), genotype cell prints only "At"
smiles,measurement,setting,value
"O=C(O)CNCP(=O)(O)O [glyphosate, N-phosphonomethylglycine]",glyphosate herbicide damage rate,[1],~0%
same,glyphosate herbicide damage rate,[2],~0%
same,glyphosate herbicide damage rate,[3],~0%
same,glyphosate herbicide damage rate,[4],~0%
same,glyphosate herbicide damage rate,[5],not less than 90%
same,glyphosate herbicide damage rate,[6],~0%
same,glyphosate herbicide damage rate,[7],~0%
COC(=O)c1ccc(I)cc1S(=O)(=O)NC(=O)Nc1nc(C)nc(OC)n1 [iodosulfuron-methyl],ability of the transformed plants to degrade the herbicide,[8],did not exhibit the ability to degrade
same,"degree of damage, transformed versus wild-type plants",[8],no difference
same,Highly resistant,[9],0
same,Moderately resistant,[9],0
same,Non-resistant,[9],29
same,Poorly resistant,[9],0
same,Highly resistant,"[10]; 10 g ai/ha (1x Iod.), Total 30",0
same,Moderately resistant,"[10]; 10 g ai/ha (1x Iod.), Total 30",0
same,Non-resistant,"[10]; 10 g ai/ha (1x Iod.), Total 30",30
same,Poorly resistant,"[10]; 10 g ai/ha (1x Iod.), Total 30",0
same,Highly resistant,"[11]; 10 g ai/ha (1x Iod.), Total 31",0
same,Moderately resistant,"[11]; 10 g ai/ha (1x Iod.), Total 31",0
same,Non-resistant,"[11]; 10 g ai/ha (1x Iod.), Total 31",31
same,Poorly resistant,"[11]; 10 g ai/ha (1x Iod.), Total 31",0
same,Highly resistant,"[12]; 10 g ai/ha (1x Iod.), Total 30",0
same,Moderately resistant,"[12]; 10 g ai/ha (1x Iod.), Total 30",0
same,Non-resistant,"[12]; 10 g ai/ha (1x Iod.), Total 30",30
same,Poorly resistant,"[12]; 10 g ai/ha (1x Iod.), Total 30",0
same,Highly resistant,[13]; 10 g ai/ha (1x Iod.),0
same,Moderately resistant,[13]; 10 g ai/ha (1x Iod.),0
same,Non-resistant,[13]; 10 g ai/ha (1x Iod.),32
same,Poorly resistant,[13]; 10 g ai/ha (1x Iod.),0
same,Highly resistant,[14]; 10 g ai/ha (1x Iod.),0
same,Moderately resistant,[14]; 10 g ai/ha (1x Iod.),0
same,Non-resistant,[14]; 10 g ai/ha (1x Iod.),29
same,Poorly resistant,[14]; 10 g ai/ha (1x Iod.),0
same,Highly resistant,[15]; 10 g ai/ha (1x Iod.),0
same,Moderately resistant,[15]; 10 g ai/ha (1x Iod.),0
same,Non-resistant,[15]; 10 g ai/ha (1x Iod.),30
same,Poorly resistant,[15]; 10 g ai/ha (1x Iod.),0
COC(=O)c1ccc(CNS(C)(=O)=O)cc1S(=O)(=O)NC(=O)Nc1nc(OC)cc(OC)n1 [mesosulfuron],ability of the transformed plants to degrade the herbicide,[8],did not exhibit the ability to degrade
same,"degree of damage, transformed versus wild-type plants",[8],no difference
same,Highly resistant,"[10]; 14 g ai/ha (1x Mes.), Total 32",0
same,Moderately resistant,"[10]; 14 g ai/ha (1x Mes.), Total 32",0
same,Non-resistant,"[10]; 14 g ai/ha (1x Mes.), Total 32",32
same,Poorly resistant,"[10]; 14 g ai/ha (1x Mes.), Total 32",0
same,Highly resistant,"[11]; 14 g ai/ha (1x Mes.), Total 30",0
same,Moderately resistant,"[11]; 14 g ai/ha (1x Mes.), Total 30",0
same,Non-resistant,"[11]; 14 g ai/ha (1x Mes.), Total 30",30
same,Poorly resistant,"[11]; 14 g ai/ha (1x Mes.), Total 30",0
same,Highly resistant,"[12]; 14 g ai/ha (1x Mes.), Total 32",0
same,Moderately resistant,"[12]; 14 g ai/ha (1x Mes.), Total 32",0
same,Non-resistant,"[12]; 14 g ai/ha (1x Mes.), Total 32",32
same,Poorly resistant,"[12]; 14 g ai/ha (1x Mes.), Total 32",0
same,Highly resistant,[13]; [16],0
same,Moderately resistant,[13]; [16],0
same,Non-resistant,[13]; [16],32
same,Poorly resistant,[13]; [16],0
same,Highly resistant,[14]; 14 g ai/ha (1x Mes.),0
same,Moderately resistant,[14]; 14 g ai/ha (1x Mes.),0
same,Non-resistant,[14]; 14 g ai/ha (1x Mes.),29
same,Poorly resistant,[14]; 14 g ai/ha (1x Mes.),0
same,Highly resistant,[15]; 14 g ai/ha (1x Mes.),0
same,Moderately resistant,[15]; 14 g ai/ha (1x Mes.),0
same,Non-resistant,[15]; 14 g ai/ha (1x Mes.),30
same,Poorly resistant,[15]; 14 g ai/ha (1x Mes.),0
Cc1cc(C)nc(NC(=O)NS(=O)(=O)c2ccccc2C(=O)OC2COC2)n1 [oxasulfuron],ability of the transformed plants to degrade the herbicide,[8],did not exhibit the ability to degrade
same,"degree of damage, transformed versus wild-type plants",[8],no difference
